Columns and labels:
AtPhyB = molecular target: T1, AtPhyB (Arabidopsis thaliana, UniProt P14713); assay: co-expression with SyHO1 and ΔN_PpPcyA in E. coli, UV-vis absorption, Zn fluorescence, acid denaturation; assay type: binding; settings: covalent; pH 7.5
T1 construct: gene PHYB; His-tagged, E. coli C41, band about 70 kDa, so a truncated photosensory region
T1 sequence (P14713 1-624 limits assumed): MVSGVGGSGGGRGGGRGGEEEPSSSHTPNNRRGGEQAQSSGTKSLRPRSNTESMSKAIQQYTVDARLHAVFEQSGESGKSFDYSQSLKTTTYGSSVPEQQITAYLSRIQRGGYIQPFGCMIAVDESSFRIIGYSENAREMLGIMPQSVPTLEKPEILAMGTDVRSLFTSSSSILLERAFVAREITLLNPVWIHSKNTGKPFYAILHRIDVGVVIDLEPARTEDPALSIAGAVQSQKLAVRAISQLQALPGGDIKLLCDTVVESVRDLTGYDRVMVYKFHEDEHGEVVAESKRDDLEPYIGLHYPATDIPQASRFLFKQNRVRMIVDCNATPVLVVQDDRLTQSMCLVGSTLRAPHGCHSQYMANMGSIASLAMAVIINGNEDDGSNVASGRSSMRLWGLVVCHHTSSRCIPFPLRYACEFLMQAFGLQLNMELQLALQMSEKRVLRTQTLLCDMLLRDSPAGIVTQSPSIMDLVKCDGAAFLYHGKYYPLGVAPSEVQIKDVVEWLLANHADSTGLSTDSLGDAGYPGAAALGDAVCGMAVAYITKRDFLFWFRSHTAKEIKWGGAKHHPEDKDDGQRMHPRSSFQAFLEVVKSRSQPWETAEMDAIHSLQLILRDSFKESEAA

[1] = molecular target: T2, PpDUC1-N (dualchrome 1 phytochrome region) (Pycnococcus provasolii, UniProt A0A830HT85); assay: expression in PΦB-producing E. coli, UV-vis absorption; assay type: binding; settings: covalent; difference spectrum; possibly data of Makita et al. 2021 shown again
T2 construct: gene PPROV_000692100; N-terminal phytochrome region (includes GAF and PHY domains) of the phytochrome-cryptochrome fusion; His-tagged, E. coli C41, about 75 kDa
T2 sequence (A0A830HT85 entry or part of it): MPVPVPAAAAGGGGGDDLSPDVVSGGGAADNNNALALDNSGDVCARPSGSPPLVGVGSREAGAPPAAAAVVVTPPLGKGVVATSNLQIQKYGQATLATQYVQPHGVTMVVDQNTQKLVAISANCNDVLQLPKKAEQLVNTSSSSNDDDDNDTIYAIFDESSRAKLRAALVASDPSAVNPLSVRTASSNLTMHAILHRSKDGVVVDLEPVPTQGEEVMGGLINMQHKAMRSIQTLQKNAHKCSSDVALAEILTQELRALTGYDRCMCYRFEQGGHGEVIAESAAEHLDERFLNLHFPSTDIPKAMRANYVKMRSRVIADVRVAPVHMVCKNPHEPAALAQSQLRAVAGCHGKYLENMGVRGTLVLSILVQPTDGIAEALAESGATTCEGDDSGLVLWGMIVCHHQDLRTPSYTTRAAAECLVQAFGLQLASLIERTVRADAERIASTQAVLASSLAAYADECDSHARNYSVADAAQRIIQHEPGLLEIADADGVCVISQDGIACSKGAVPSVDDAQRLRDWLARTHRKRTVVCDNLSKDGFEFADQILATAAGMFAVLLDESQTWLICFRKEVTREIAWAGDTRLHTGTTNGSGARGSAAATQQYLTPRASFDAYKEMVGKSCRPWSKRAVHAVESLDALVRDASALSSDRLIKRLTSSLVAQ

Row | SMILES | co-expression with SyHO1 and ΔN_PpPcyA in E. coli, UV-vis absorption, Zn fluores (AtPhyB) | expression in PΦB-producing E. coli, UV-vis absorption [1]
1 | CC=C1C(=Cc2[nH]c(C=C3N=C(C=C4NC(=O)C(CC)=C4C)C(C)=C3CCC(=O)O)c(CCC(=O)O)c2C)NC(=O)C1C (centres unmarked) [PCB] | difference spectrum of AtPhyB coexpressed with ΔN_PpPcyA was nearly identical to that of PCB-binding AtPhyB | 
2 | C=CC1=C(C)C(=CC2=NC(=Cc3[nH]c(C=C4NC(=O)C(C)C4=CC)c(C)c3CCC(=O)O)C(CCC(=O)O)=C2C)NC1=O (centres unmarked) [PΦB] |  | difference spectrum of PpDUC1-N purified from PCB-producing and PΦB-producing E. coli
